# Patent US8748481B2, “Method for treating gastrointestinal disorder” (Sucampo AG, priority 2004, dated 2014)
# Tested on: patients with irritable bowel syndrome (IBS)
# Assay: 48-week treatment of IBS patients: abdominal discomfort, abdominal bloating, severity of constipation (Example 3)
# Assay type: in vivo, human
# Design: key to Abdominal discomfort, Change from Baseline, Median / Abdominal bloating, Change from Baseline, Median: change on 0 (absent) to 4 (very severe) scale; key to Severity of Constipation, Change from Baseline, Median: change on 0 (very loose) to 4 (very hard) scale
# Conditions: for Abdominal bloating, Mean ± SD / Abdominal bloating, Median / Abdominal discomfort, Mean ± SD / Abdominal discomfort, Median / Severity of Constipation, Mean ± SD / Severity of Constipation, Median: scale 0-4
# Procedure: Patients with irritable bowel syndrome (IBS) were treated with 48 μg of Compound A (24 μg of Compound A b.i.d) for 48 weeks.
# In this study, we evaluated the following parameters. • 1) Abdominal discomfort • 2) Abdominal bloating • 3) Severity of Constipation
# Each of Abdominal discomfort and Abdominal bloating was evaluated on a scale of: 0 (absent), 1 (mild), 2 (moderate), 3 (severe) and 4 (very severe) in the patients. Severity of Constipation was evaluated on a scale of: 0 (very loose), 1: (loose), 2: (normal), 3 (hard), 4 (very hard) in the patients.
structure (smiles),measurement,setting,value
"CCCCC(F)(F)C(=O)CCC1C(O)CC(=O)C1CCCCCCC(=O)O (stereo not shown) [Compound A, 13,14-dihydro-15-keto-16,16-difluoro-PGE1]",Efficacy in IBS patients (Tables 2 to 4),"48 μg/day, 12 months treatment",effective
same,"Abdominal bloating, Mean ± SD",Baseline,2.23 ± 0.927 (183)
same,"Abdominal bloating, Median",Baseline,2.00
same,"Abdominal discomfort, Mean ± SD",Baseline,1.95 ± 0.850 (183)
same,"Abdominal discomfort, Median",Baseline,2.00
same,"Severity of Constipation, Mean ± SD",Baseline,2.95 ± 0.751 (183)
same,"Severity of Constipation, Median",Baseline,3.00
same,"Abdominal bloating, Change from Baseline, Mean ± SD","End of Treatment, 48 μg/day",−0.73 ± 1.075 (183)
same,"Abdominal bloating, Change from Baseline, Median","End of Treatment, 48 μg/day",−1.00
same,"Abdominal discomfort, Change from Baseline, Mean ± SD","End of Treatment, 48 μg/day",−0.66 ± 1.112 (183)
same,"Abdominal discomfort, Change from Baseline, Median","End of Treatment, 48 μg/day",−1.00
same,"Severity of Constipation, Change from Baseline, Mean ± SD","End of Treatment, 48 μg/day",−1.11 ± 1.148 (183)
same,"Severity of Constipation, Change from Baseline, Median","End of Treatment, 48 μg/day",−1.00
same,"Abdominal bloating, Mean ± SD","End of Treatment, 48 μg/day",1.50 ± 1.005 (183)
same,"Abdominal bloating, Median","End of Treatment, 48 μg/day",1.00
same,"Abdominal discomfort, Mean ± SD","End of Treatment, 48 μg/day",1.28 ± 1.020 (183)
same,"Abdominal discomfort, Median","End of Treatment, 48 μg/day",1.00
same,"Severity of Constipation, Mean ± SD","End of Treatment, 48 μg/day",1.84 ± 1.120 (183)
same,"Severity of Constipation, Median","End of Treatment, 48 μg/day",2.00
same,"Abdominal bloating, Change from Baseline, Mean ± SD",Follow-Up,−0.69 ± 1.109 (121)
same,"Abdominal bloating, Change from Baseline, Median",Follow-Up,−1.00
same,"Abdominal discomfort, Change from Baseline, Mean ± SD",Follow-Up,−0.55 ± 1.080 (121)
same,"Abdominal discomfort, Change from Baseline, Median",Follow-Up,−1.00
same,"Severity of Constipation, Change from Baseline, Mean ± SD",Follow-Up,−0.88 ± 1.122 (121)
same,"Severity of Constipation, Change from Baseline, Median",Follow-Up,−1.00
same,"Abdominal bloating, Mean ± SD",Follow-Up,1.55 ± 0.957 (121)
same,"Abdominal bloating, Median",Follow-Up,2.00
same,"Abdominal discomfort, Mean ± SD",Follow-Up,1.40 ± 0.996 (121)
same,"Abdominal discomfort, Median",Follow-Up,1.00
same,"Severity of Constipation, Mean ± SD",Follow-Up,2.07 ± 0.946 (121)
same,"Severity of Constipation, Median",Follow-Up,2.00
same,"Abdominal bloating, Change from Baseline, Mean ± SD","Week 12, 48 μg/day",−0.84 ± 1.045 (135)
same,"Abdominal bloating, Change from Baseline, Median","Week 12, 48 μg/day",−1.00
same,"Abdominal discomfort, Change from Baseline, Mean ± SD","Week 12, 48 μg/day",−0.79 ± 0.993 (135)
same,"Abdominal discomfort, Change from Baseline, Median","Week 12, 48 μg/day",−1.00
same,"Severity of Constipation, Change from Baseline, Mean ± SD","Week 12, 48 μg/day",−1.16 ± 1.099 (135)
same,"Severity of Constipation, Change from Baseline, Median","Week 12, 48 μg/day",−1.00
same,"Abdominal bloating, Mean ± SD","Week 12, 48 μg/day",1.43 ± 0.919 (135)
same,"Abdominal bloating, Median","Week 12, 48 μg/day",1.00
same,"Abdominal discomfort, Mean ± SD","Week 12, 48 μg/day",1.16 ± 0.836 (135)
same,"Abdominal discomfort, Median","Week 12, 48 μg/day",1.00
same,"Severity of Constipation, Mean ± SD","Week 12, 48 μg/day",1.76 ± 1.003 (135)
same,"Severity of Constipation, Median","Week 12, 48 μg/day",2.00
same,"Abdominal bloating, Change from Baseline, Mean ± SD","Week 18, 48 μg/day",−1.07 ± 1.068 (111)
same,"Abdominal bloating, Change from Baseline, Median","Week 18, 48 μg/day",−1.00
same,"Abdominal discomfort, Change from Baseline, Mean ± SD","Week 18, 48 μg/day",−0.97 ± 1.031 (111)
same,"Abdominal discomfort, Change from Baseline, Median","Week 18, 48 μg/day",−1.00
same,"Severity of Constipation, Change from Baseline, Mean ± SD","Week 18, 48 μg/day",−1.59 ± 1.148 (111)
same,"Severity of Constipation, Change from Baseline, Median","Week 18, 48 μg/day",−2.00
same,"Abdominal bloating, Mean ± SD","Week 18, 48 μg/day",1.19 ± 0.837 (111)
same,"Abdominal bloating, Median","Week 18, 48 μg/day",1.00
same,"Abdominal discomfort, Mean ± SD","Week 18, 48 μg/day",0.98 ± 0.874 (111)
same,"Abdominal discomfort, Median","Week 18, 48 μg/day",1.00
same,"Severity of Constipation, Mean ± SD","Week 18, 48 μg/day",1.33 ± 0.985 (111)
same,"Severity of Constipation, Median","Week 18, 48 μg/day",1.00
same,"Abdominal bloating, Change from Baseline, Mean ± SD","Week 24, 48 μg/day",−0.95 ± 1.102 (107)
same,"Abdominal bloating, Change from Baseline, Median","Week 24, 48 μg/day",−1.00
same,"Abdominal discomfort, Change from Baseline, Mean ± SD","Week 24, 48 μg/day",−0.82 ± 1.035 (107)
same,"Abdominal discomfort, Change from Baseline, Median","Week 24, 48 μg/day",−1.00
same,"Severity of Constipation, Change from Baseline, Mean ± SD","Week 24, 48 μg/day",−1.40 ± 1.036 (107)
same,"Severity of Constipation, Change from Baseline, Median","Week 24, 48 μg/day",−1.00
same,"Abdominal bloating, Mean ± SD","Week 24, 48 μg/day",1.26 ± 0.915 (107)
same,"Abdominal bloating, Median","Week 24, 48 μg/day",1.00
same,"Abdominal discomfort, Mean ± SD","Week 24, 48 μg/day",1.09 ± 0.917 (107)
same,"Abdominal discomfort, Median","Week 24, 48 μg/day",1.00
same,"Severity of Constipation, Mean ± SD","Week 24, 48 μg/day",1.50 ± 0.965 (107)
same,"Severity of Constipation, Median","Week 24, 48 μg/day",1.00
same,"Abdominal bloating, Change from Baseline, Mean ± SD","Week 36, 48 μg/day",−1.00 ± 1.134 (57)
same,"Abdominal bloating, Change from Baseline, Median","Week 36, 48 μg/day",−1.00
same,"Abdominal discomfort, Change from Baseline, Mean ± SD","Week 36, 48 μg/day",−0.77 ± 0.926 (57)
same,"Abdominal discomfort, Change from Baseline, Median","Week 36, 48 μg/day",−1.00
same,"Severity of Constipation, Change from Baseline, Mean ± SD","Week 36, 48 μg/day",−1.33 ± 1.123 (57)
same,"Severity of Constipation, Change from Baseline, Median","Week 36, 48 μg/day",−1.00
same,"Abdominal bloating, Mean ± SD","Week 36, 48 μg/day",1.05 ± 0.854 (57)
same,"Abdominal bloating, Median","Week 36, 48 μg/day",1.00
same,"Abdominal discomfort, Mean ± SD","Week 36, 48 μg/day",0.93 ± 0.799 (57)
same,"Abdominal discomfort, Median","Week 36, 48 μg/day",1.00
same,"Severity of Constipation, Mean ± SD","Week 36, 48 μg/day",1.39 ± 0.921 (57)
same,"Severity of Constipation, Median","Week 36, 48 μg/day",1.00
same,"Abdominal bloating, Change from Baseline, Mean ± SD","Week 48, 48 μg/day",−0.94 ± 0.802 (52)
same,"Abdominal bloating, Change from Baseline, Median","Week 48, 48 μg/day",−1.00
same,"Abdominal discomfort, Change from Baseline, Mean ± SD","Week 48, 48 μg/day",−0.81 ± 0.908 (52)
same,"Abdominal discomfort, Change from Baseline, Median","Week 48, 48 μg/day",−1.00
same,"Severity of Constipation, Change from Baseline, Mean ± SD","Week 48, 48 μg/day",−1.37 ± 1.095 (51)
same,"Severity of Constipation, Change from Baseline, Median","Week 48, 48 μg/day",−1.00
same,"Abdominal bloating, Mean ± SD","Week 48, 48 μg/day",1.12 ± 0.832 (52)
same,"Abdominal bloating, Median","Week 48, 48 μg/day",1.00
same,"Abdominal discomfort, Mean ± SD","Week 48, 48 μg/day",0.87 ± 0.929 (52)
same,"Abdominal discomfort, Median","Week 48, 48 μg/day",1.00
same,"Severity of Constipation, Mean ± SD","Week 48, 48 μg/day",1.37 ± 0.894 (51)
same,"Severity of Constipation, Median","Week 48, 48 μg/day",1.00
